The text below walks through data of patent US11370769B2, “TRPC5 inhibitors and methods of using same” (BOARD OF REGENTS OF THE UNIVERSITY OF NEBRASKA, priority 2017, dated 2022).

The test system of one data set is kinase. Briefly: standard kinase profiling assays. The data set is classed as biochemical.
Another data set deals with Dahl S rats. Nature of the data set: Dahl salt-sensitive rat model of hypertension-induced FSGS. It is filed as in vivo. The procedure: Animals and chemicals: Littermates of wild-type (WT) and AT1R TgNeph-hAT1R/185 transgenic (AT1R Tg) rats were housed under a controlled environment with a 12-hour light-dark cycle and access to food and water ad libitum, unless otherwise described. All animal experiments were performed in accordance to the guidelines established and approved by the Animal Care and Use Committee at Brigham and Women's Hospital, Harvard Medical School (Animal Protocol No. 01538). AT1R Tg rats were placed in the Onset cohort when measured proteinuria was >5 mg/day (at approximately 12 weeks of age) on two separate 24-hour urine collections. AT1R Tg rats were placed in the Advanced cohort when measured proteinuria was >25 mg/day (at approximately 18 weeks of age) on two separate 24-hour urine collections. These thresholds were determined after detailed histologic and phenotypic characterization of AT1R Tg rats compared to WT littermates (all combined, n=91 WT rats and n=122 AT1R Tg rats were studied). The Dahl salt-sensitive (S) inbred strain is maintained at University of Mississippi Medical Center (UMMC) and was originally obtained from University of Toledo-College of Medicine (SS/Jr). All animal experiments performed at UMMC were in accordance to the guidelines established and approved by the Institutional Animal Care and Use Committee. Animals used for this studied were provided either low-salt diet [TD7034, 0.3% NaCl and/or high-salt diet [TD94217, 2.0% NaCl] from Harlan Teklad, Madison, Wis. For onset study, at 4 weeks of age, groups of age-matched male S were weaned to the low-salt diet and divided into two groups: vehicle (n=8) and AC1903 groups (n=8). At 6 weeks of age, both groups were placed on the high-salt diet and concurrently treated with either vehicle or AC1903 for 1-week (Onset). For Advanced study, similarly at 4 weeks of age, groups of age-matched male S were weaned to the low-salt diet and divided into two groups: vehicle (n=9) and AC1903 groups (n=11). At 6 weeks of age, both groups were placed on the high-salt diet. At week 7, concurrent with high-salt diet, animals were treated with either vehicle or AC1903 for 1-week (Advanced). At the conclusion of each study, animals were initially anesthetized under 2-3% isoflurane/O2 gas, a catheter attached to a fluid filled pressure transducer was placed in the aorta, isoflurane gas was reduced to 1.5%, and mean arterial pressure was measured for ˜5 min period using PowerLab 4/30 system (ADI Instruments, Co) as done previously. All chemicals were purchased from Sigma-Aldrich unless otherwise described.
Chemical preparation and IP administration: ML204 and AC1903 were prepared from powder in a single batch for each in vivo experiment to avoid variability. Immediately prior to injections, ML204 or AC1903 solution was placed on a heated shaker at 48° C. and 800 RPM. Vehicle was prepared in the same fashion. Injection volume was determined by body weight (2 mL vehicle/compound per kg body weight). Body weight was measured at the time of injection.
Urine collection and assay: For urine collections, rats were housed individually in a metabolic cage supplied with food and water. Urine was collected into a 50 mL falcon tube for 24 hours. Total urine volume was measured and then centrifuged at 3,200 rcf for 10 min at 4° C. Albumin quantification was done according to previously published protocol (11), involving multiple dilutions of urine from each animal compared to Bovine Serum Albumin (BSA) standards. Coumassie Blue stained gels were quantified by densitometry using ImageJ software. As an additional control, the rat ELISA Albumin kit (Exocell) was used for albumin quantification according to the manufacturer's recommendations and yielded the same results. Urine protein was measured using QuanTtest® Red Total Protein Assay System (Quantimetrix, Redondo Beach, Calif.) and expressed as mg protein/24 hours. […]

The test system of another data set is podocytes. Nature of the data set: ROS assay in wild-type podocytes treated with AngII. The data set is classed as cell-based, mouse. The following applies: WT podocytes, AngII 10 μM, 30 μM compound, 3 hours. Here is the method: Podocyte culture and viral transduction: Immortalized mouse podocytes were cultured as previously described (10, 11). Podocyte viral transduction was performed using lentivirus as previously described (10, 11). Briefly, lentivirus production was carried out in HEK293T cells at 60% confluence, and viral particles were collected two days after transfection and purified by centrifugation at 1,000 rcf for 5 min. Purified lentivirus was frozen at −80° C. until further use. Podocytes were transduced with lentivirus after 7 days of differentiation, and assays were performed 5 days after viral transduction.
ROS and cell viability assays: For ROS experiment in FIG. 4A, mature podocytes were cultured as previously described. Cells were incubated with CellRox Deep Red reagent (ThermoFisher) for 30 min at 37° C. Then cells were treated with DMSO, 10 μM angiotensin II, 10 μM angiotensin II with 30 μM AC1903, or 10 μM angiotensin II with 30 μM N-acetyl-L-cysteine (NAC) for 3 hours at 37° C. Cells were washed with PBS twice and fluorescence images were observed using Olympus IX71 microscopy. Fluorescence intensities were then analyzed using ImageJ software.

On to `c1ccc(Cn2c(NCc3ccco3)nc3ccccc32)cc1` [AC1903], for which, in the data set on kinase, the “off-target effects in kinase profiling” value is recorded as “not found to have any off-target effects”. The “numbers of podocytes per glomerulus” value with Dahl S rats (AC1903 treated Dahl S rats, stated similar to WT and AC1903-treated AT1R Tg rats) is listed as “approximately 120 podocytes/glom”. In addition, in the data set with Dahl S rats (AC1903 treatment), the BUN entry is reported as “no effect”, the body weight entry is given as “no effect”, the creatinine result was “no effect” and the “mean arterial pressure (MAP)” value is “did not affect”. Also, in the data set on Dahl S rats (Advanced, AC1903 50 mg/kg), the “numbers of podocytes per glomerulus compared to vehicle-treated controls” value was “higher”. The proteinuria result in the data set on Dahl S rats (Advanced: 50 mg/kg, treatment day 7 to day 14 of 2% NaCl) was “significant suppression of proteinuria”. In addition, in the data set on Dahl S rats (Onset: 50 mg/kg twice daily i.p. from start of 2% NaCl diet, 1 week), the “rate of progressive proteinuria” value was “significantly reduced”. For the same compound, the “AngII-induced ROS” value with podocytes was “blocked”.
